# Data as given in patent US6461997B1, “Triazole sulfones having herbicidal activity” (Monsanto Technology LLC, priority 1999, dated 2002).
# System: SASKR (russian thistle)
# Test: Pre-emergence herbicidal activity, cool season
# Type: in vivo, Salsola kali
# Details: lowest tested rate with 80% or greater inhibition; rates 300, 100, 30, 10 g/ha; about 14 days
# Procedure: (§1) Tables 5 to 8 summarize results of tests conducted as described below to determine the pre-emergence herbicidal activity, in the form of a GR80 value, of illustrative compounds of this invention. […] Compounds of the invention were typically applied at rates of 300, 100, 30, and 10 g/ha. Where herbicidal activity was evident but 80% inhibition was not achieved at the highest rate tested, an asterisk (*) is shown in the following tables.
# (§2) The pre-emergence tests were conducted by the following procedure. Topsoil was sieved to pass through a 1.27 cm screen. Fertilizer was added to the topsoil and the mixture was then sterilized by heating. The topsoil mixture was placed in a pot and compacted to a depth of 1.0 to 1.25 cm from the top of the pot. Seeds of each of several monocotyledonous and dicotyledonous annual plant species were placed on top of the soil. Additional soil was subsequently placed over the seeds to level-fill the pot. A known amount of each test compound dissolved or suspended in an appropriate organic solvent was diluted with a 50:50 mix of acetone and water and applied to the surface of the soil. After treatment the plants were placed in a greenhouse where they received 0.64 cm of overhead irrigation. All subsequent watering consisted of a light overhead mist and/or subirrigation as needed for germination and growth. Tables 5 and 6 below relate to warm season plant species which were placed after pre-emergence treatment in a greenhouse with a 30/21° C. day/night temperature regime. Tables 7 and 8 below relates to cool season plant species placed after pre-emergence treatment in a greenhouse or growth chamber with an 18/13° C. day/night temperature regime.
# (§3) Approximately 14 days after planting and treating, the plants were observed and herbicidal efficacy recorded as percent inhibition by comparison with untreated plants.
# (§4) The plant species usually regarded as weeds which were utilized in the tests are identified in the tables below according to the following legend, in which “d” indicates a dicotyledonous species and “m” a monocotyledonous species. All monocotyledonous species included in the tests herein are grasses.
row,SMILES,"Pre-emergence activity GR80, SASKR"
1,CCN(CC)C(=S)n1cnc(S(=O)(=O)C(F)(F)C(F)F)n1 [Example 70],300 g/ha
2,O=C(N1CCOCC1)n1cnc(S(=O)(=O)C(F)(F)Cl)n1 [Example 84],[empty]

# System: SOLNI (black nightshade)
# Test: Pre-emergence herbicidal activity, warm season
# Type: in vivo, Solanum nigrum
# Details: GR80 = lowest tested rate (300, 100, 30, 10 g/ha) with 80% or greater inhibition; approx. 14 days after treating; 30/21° C.
# Procedure: as §1, §2, §3, §4
row,SMILES,Pre-emergence activity (GR80) SOLNI
1,CCN(CC)C(=S)n1cnc(S(=O)(=O)C(F)(F)C(F)F)n1 [Example 70],300 g/ha

# System: SINAR (wild mustard)
# Test: Pre-emergence herbicidal activity, cool season
# Type: in vivo, Sinapis arvensis
# Details: lowest tested rate with 80% or greater inhibition; rates 300, 100, 30, 10 g/ha; about 14 days
# Procedure: as §1, §2, §3, §4
row,SMILES,"Pre-emergence activity GR80, SINAR"
1,CCN(CC)C(=S)n1cnc(S(=O)(=O)C(F)(F)C(F)F)n1 [Example 70],300 g/ha
2,O=C(N1CCOCC1)n1cnc(S(=O)(=O)C(F)(F)Cl)n1 [Example 84],[empty]

# System: DIGSA (large crabgrass)
# Test: Pre-emergence herbicidal activity, warm season
# Type: in vivo, Digitaria sanguinalis
# Details: GR80 = lowest tested rate (300, 100, 30, 10 g/ha) with 80% or greater inhibition; approx. 14 days after treating; 30/21° C.
# Procedure: as §1, §2, §3, §4
row,SMILES,Pre-emergence activity (GR80) DIGSA
1,CCN(CC)C(=S)n1cnc(S(=O)(=O)C(F)(F)C(F)F)n1 [Example 70],300 g/ha

# System: STEME (common chickweed)
# Test: Pre-emergence herbicidal activity, cool season
# Type: in vivo, Stellaria media
# Details: lowest tested rate with 80% or greater inhibition; rates 300, 100, 30, 10 g/ha; about 14 days
# Procedure: as §1, §2, §3, §4
row,SMILES,"Pre-emergence activity GR80, STEME"
1,CCN(CC)C(=S)n1cnc(S(=O)(=O)C(F)(F)C(F)F)n1 [Example 70],[empty]
2,O=C(N1CCOCC1)n1cnc(S(=O)(=O)C(F)(F)Cl)n1 [Example 84],[empty]

# System: LAMPU (purple deadnettle)
# Test: Pre-emergence herbicidal activity, cool season
# Type: in vivo, Lamium purpureum
# Details: lowest tested rate with 80% or greater inhibition; rates 300, 100, 30, 10 g/ha; about 14 days
# Procedure: as §1, §2, §3, §4
row,SMILES,"Pre-emergence activity GR80, LAMPU"
1,CCN(CC)C(=S)n1cnc(S(=O)(=O)C(F)(F)C(F)F)n1 [Example 70],[empty]
2,O=C(N1CCOCC1)n1cnc(S(=O)(=O)C(F)(F)Cl)n1 [Example 84],300 g/ha

# System: SETVI (green foxtail)
# Test: Pre-emergence herbicidal activity, cool season
# Type: in vivo, Setaria viridis
# Details: GR80 = lowest tested rate (300, 100, 30, 10 g/ha) with 80% or greater inhibition; approx. 14 days after treating; 18/13° C.
# Procedure: as §1, §2, §3, §4
row,SMILES,Pre-emergence activity (GR80) SETVI
1,CCN(CC)C(=S)n1cnc(S(=O)(=O)C(F)(F)C(F)F)n1 [Example 70],300 g/ha

# System: SETFA (giant foxtail)
# Test: Pre-emergence herbicidal activity, warm season
# Type: in vivo, Setaria faberi
# Details: GR80 = lowest tested rate (300, 100, 30, 10 g/ha) with 80% or greater inhibition; approx. 14 days after treating; 30/21° C.
# Procedure: as §1, §2, §3, §4
row,SMILES,Pre-emergence activity (GR80) SETFA
1,CCN(CC)C(=S)n1cnc(S(=O)(=O)C(F)(F)C(F)F)n1 [Example 70],300 g/ha

# System: VERPE (creeping speedwell)
# Test: Pre-emergence herbicidal activity, cool season
# Type: in vivo, Veronica persicaria
# Details: lowest tested rate with 80% or greater inhibition; rates 300, 100, 30, 10 g/ha; about 14 days
# Procedure: as §1, §2, §3, §4
row,SMILES,"Pre-emergence activity GR80, VERPE"
1,CCN(CC)C(=S)n1cnc(S(=O)(=O)C(F)(F)C(F)F)n1 [Example 70],[empty]
2,O=C(N1CCOCC1)n1cnc(S(=O)(=O)C(F)(F)Cl)n1 [Example 84],[empty]

# System: PANMI (wild proso millet)
# Test: Pre-emergence herbicidal activity, warm season
# Type: in vivo, Panicum miliaceum
# Details: GR80 = lowest tested rate (300, 100, 30, 10 g/ha) with 80% or greater inhibition; approx. 14 days after treating; 30/21° C.
# Procedure: as §1, §2, §3, §4
row,SMILES,Pre-emergence activity (GR80) PANMI
1,CCN(CC)C(=S)n1cnc(S(=O)(=O)C(F)(F)C(F)F)n1 [Example 70],300 g/ha

# System: POLCO (wild buckwheat)
# Test: Pre-emergence herbicidal activity, cool season
# Type: in vivo, Polygonum convolvulus
# Details: lowest tested rate with 80% or greater inhibition; rates 300, 100, 30, 10 g/ha; about 14 days
# Procedure: as §1, §2, §3, §4
row,SMILES,"Pre-emergence activity GR80, POLCO"
1,CCN(CC)C(=S)n1cnc(S(=O)(=O)C(F)(F)C(F)F)n1 [Example 70],300 g/ha
2,O=C(N1CCOCC1)n1cnc(S(=O)(=O)C(F)(F)Cl)n1 [Example 84],300 g/ha

# System: POROL (common purslane)
# Test: Pre-emergence herbicidal activity, warm season
# Type: in vivo, Portulaca oleracea
# Details: GR80 = lowest tested rate (300, 100, 30, 10 g/ha) with 80% or greater inhibition; approx. 14 days after treating; 30/21° C.
# Procedure: as §1, §2, §3, §4
row,SMILES,Pre-emergence activity (GR80) POROL
1,CCN(CC)C(=S)n1cnc(S(=O)(=O)C(F)(F)C(F)F)n1 [Example 70],300 g/ha

# System: CHEAL (common lambsquarters)
# Test: Pre-emergence herbicidal activity, warm season
# Type: in vivo, Chenopodium album
# Details: GR80 = lowest tested rate (300, 100, 30, 10 g/ha) with 80% or greater inhibition; approx. 14 days after treating; 30/21° C.
# Procedure: as §1, §2, §3, §4
row,SMILES,Pre-emergence activity (GR80) CHEAL
1,CCN(CC)C(=S)n1cnc(S(=O)(=O)C(F)(F)C(F)F)n1 [Example 70],300 g/ha

# System: GALAP (catchweed bedstraw)
# Test: Pre-emergence herbicidal activity, cool season
# Type: in vivo, Galium aparine
# Details: lowest tested rate with 80% or greater inhibition; rates 300, 100, 30, 10 g/ha; about 14 days
# Procedure: as §1, §2, §3, §4
row,SMILES,"Pre-emergence activity GR80, GALAP"
1,CCN(CC)C(=S)n1cnc(S(=O)(=O)C(F)(F)C(F)F)n1 [Example 70],[empty]
2,O=C(N1CCOCC1)n1cnc(S(=O)(=O)C(F)(F)Cl)n1 [Example 84],[empty]

# System: CIRAR (canada thistle (seedling))
# Test: Pre-emergence herbicidal activity, warm season
# Type: in vivo, Cirsium arvense
# Details: GR80 = lowest tested rate (300, 100, 30, 10 g/ha) with 80% or greater inhibition; approx. 14 days after treating; 30/21° C.
# Procedure: as §1, §2, §3, §4
row,SMILES,Pre-emergence activity (GR80) CIRAR
1,CCN(CC)C(=S)n1cnc(S(=O)(=O)C(F)(F)C(F)F)n1 [Example 70],300 g/ha

# System: AGSST (creeping bentgrass)
# Test: Pre-emergence herbicidal activity, cool season
# Type: in vivo, Agrostis stolonifera
# Details: GR80 = lowest tested rate (300, 100, 30, 10 g/ha) with 80% or greater inhibition; approx. 14 days after treating; 18/13° C.
# Procedure: as §1, §2, §3, §4
row,SMILES,Pre-emergence activity (GR80) AGSST
1,CCN(CC)C(=S)n1cnc(S(=O)(=O)C(F)(F)C(F)F)n1 [Example 70],300 g/ha

# System: DATST (jimsonweed)
# Test: Pre-emergence herbicidal activity, warm season
# Type: in vivo, Datura stramonium
# Details: GR80 = lowest tested rate (300, 100, 30, 10 g/ha) with 80% or greater inhibition; approx. 14 days after treating; 30/21° C.
# Procedure: as §1, §2, §3, §4
row,SMILES,Pre-emergence activity (GR80) DATST
1,O=C(N1CCOCC1)n1cnc(S(=O)(=O)C(F)(F)Cl)n1 [Example 84],300 g/ha
